Data published in patent US20110212137A1, “INHALABLE PHARMACEUTICAL COMPOSITION” (TEVA BRANDED PHARMACEUTICAL PRODUCTS R&D, INC., priority 2010, published 2011).

Test system: Asthma patients
Experiment: Retrospective observational cohort study (UK General Practice Research Database): odds of successful asthma control after ICS increase
Format: in vivo
Conditions: compared with Qvar; as the primary proxy plus average daily prescribed salbutamol no more than 200 mcg and terbutaline 500 mcg; 12 month follow-up
Description: Qvar® and other inhaled corticosteroids (ICS) CFC-beclometasone (BDP) and fluticasone propionate (FP) were compared in a large representative, UK clinical database.
Patients were eligible if they had data available for the twelve months prior to AND twelve months after the date of ICS increase. Multiple logistic regression, adjusted for baseline severity, provided odds of successful asthma control (no asthma hospital attendances, oral steroids, consultations or hospital admissions for lower respiratory tract infections requiring antibiotics) during 12 month follow-up. Poisson regression was used to compare asthma exacerbation rates (unscheduled hospital admissions/A&E attendances for asthma or use of oral steroids).
Study Design: A retrospective, observational, cohort study design was used, consisting of two time periods: a baseline period for confounder definition (minimum of one year before index prescription date) and an outcome period of one year post-index prescription date. The study design is shown in schematic format in FIG. 1.
Statistical Analysis: Descriptive statistics were used to compare baseline outcomes. Multiple logistic regression, adjusted for baseline severity and other potential confounders found at baseline, was used to determine the odds of successful asthma control. Poisson regression was used to compare exacerbation rates. […]

CCC(=O)O[C@]1(C(=O)SCF)[C@H](C)C[C@H]2[C@@H]3C[C@H](F)C4=CC(=O)C=C[C@]4(C)[C@@]3(F)[C@@H](O)C[C@@]21C [FP, fluticasone propionate]
Adjusted odds ratio for successful asthma control, revised definition including SABA use: 0.90
